The values that follow are results of earlier work, collected in patent US20210402001A1, “Zinc Porters, and their Monoclonal Antibody Conjugates, for the Prevention and Treatment of COVID-19 (SARS-CoV-2), Other Infections, and Cancers” (priority 2020, published 2021).

One data set deals with blood platelets. Particulars: healthy individuals, single oral dose of 220 mg.
For data set [1] the following is noted: intranasal.
The subject of another data set is trypsin. As to conditions: reduced state, five trypsin cleavage sites.
For data set [2] the following is noted: oxidized HDEFA5.

Regarding `O=S(=O)([O-])[O-].[Zn+2]` [Zn sulfate], the platelet activity result with blood platelets is reported as “hyperactive”. The “loss of smell (anosmia)” value in data set [1] is “profound acute anosmia”.
With “ATCYCRTGRCATRESLSGVCEISGRLYRLCCR [HDEFA5]”, the “degradation by gut trypsin” value in the data set with trypsin is “rapidly degraded”. For the same compound, in data set [2], the Zn dissociation constant entry is listed as “picomolar”.
